According to EP0249561B1, “Compositions using liposome-encapsulated non-steroidal anti-inflammatory drugs” (THE LIPOSOME COMPANY, INC., priority 1986, dated 1987):

Assays:
male Wistar rats = assay: Acute ulceration after one oral dose of indomethacin, ulcer lengths counted in excised stomachs (Control 1 / Example 2); assay type: in vivo; conditions: indomethacin 10 mg/kg, starved rats, 4 hours after dosing
Protocol: Twenty 225-250 g male Wistar rats were starved for 18-24 hours prior to dosing. Rats were allowed access to water throughout the study. Ten rats in the free drug control group were then administered one oral dose of indomethacin, dissolved in polyethylene glycol 400 at 7 mg/ml and administered at 10 mg/kg body weight of indomethacin.
Four hours following dosing, rats were sacrificed by carbon dioxide anoxia and their stomachs surgically removed by severing at the cardiac and pyloric sphinctors. The stomachs were opened along the lesser curve, flattened, and washed with saline. Ulcer lengths were counted under a dissecting microscope (American Optical, Buffalo, NY) equipped with an eyepiece micrometer, and lengths were summed and averaged for all animals in a single treatment group.
Ulcer protection was assessed by summing and averaging ulcer lengths (in mm) of the treated group and comparing the value to that of the group administered free drug […]. Percent ulcer inhibition was calculated by dividing the average length of ulceration of the liposome-treated group by the of the corresponding free drug group, and multiplying by 100.
The procedures and materials of Example 1 were employed using 10 mg/kg body weight of indomethacin entrapped in stable plurilamellar vesicles (SPLVs) composed of digalactosyl diglyceride; ulcer protection was assessed as in Example 1.

female Wistar rats = assay: Acute carageenan paw edema model, paw volume by plethysmometer (Control 2 / Example 3); assay type: in vivo; conditions: indomethacin 2 mg/kg oral, 30 minutes before carageenan, paw volume 2.5 hours after carageenan
Protocol: Eight female Wistar rats weighing approximately 100 grams were allowed free access to food and water. A tatoo line was inscribed onto the right rear paw just below the hair line. Initial paw volume was measured by a transducer-linked plethysmometer (Stoelting Co., Chicago, Illinois) which contained a saline solution. The instrument measures paw volumes by an electrical charge difference across two electrodes resulting from the volume displacement by the paw. A transducer corrects this charge difference into cubic centimeters of volume displaced. Following immersion of the paw in the perspex cell to the inscribed line, a direct measurement of the displacement volume was recorded. Rats were orally dosed with 2 mg/kg body weight of indomethacin in polyethylene glycol 400. At 30 minutes post treatment, rats received an injection of 0.1 ml of 1.5% carageenan in saline […] directly into the rear paw pad. The paw volume was again determined 2.5 hours after the carageenan administration. The edema intensity (EI) was calculated: [formula] and averaged for the eight rats. The paw volumes for the eight rats were averaged and the percent swelling inhibition was calculated: % swelling Reduction: [formula] […] Rats were orally dosed with the liposomes, and percent swelling reduction was calculated as in Example 2.

rats (Wistar) [1] = assay: Inducing gastric ulcers (acute), oral administration (Control 3); assay type: in vivo; conditions: for mm Ulceration + SEM: acute oral, 4 hours
Text: For oral studies, it is convenient to use indomethacin but other nonsteroidal anti-inflammatory therapeutic agent can be similarly employed. This model is also useful in examining other nonsteroidal anti-inflammatory therapeutic agents and other mammals. Simply varying doses will induct gastric ulcers for other agents and mammals in this model. Unlike gastric ulcer protocols, it has been shown that for nonsteroidal anti-inflammatory effects such as indomethacin-induced intestinal lesions to occur, animals must be allowed free acces to food and water during the study.
Indomethacin at dosages between about 2 mg/kg and 10 mg/kg were given in 0.5 ml of neat PEG-400, vehicle or as incorporated into the liposomes at a 200 mg/kg dosage of phospholipid. Four hours following oral administration of test formulations, animals were sacrificed by CO₂ anoxia and the stomachs were excised. For systemically-induced gastric ulceration, dosages of PEG-400 solubilized indomethacin between 4 mg/kg and 50 mg/kg in 0.5 ml were administered subcutaneously. […] Tissue was thoroughly rinsed in saline and the inner mucosal surface was laid flat for microscopic evaluation. Visible ulcers were quantitated using a dissecting microscope (AO Optical, Buffalo, NY) equipped with an eyepiece micrometer. Results using this test were expressed in millimeters of ulceration and in percent inhibition of ulcers where treatment was effected. For all studies, a minimum of 10 animals per experimental group were employed. Experiments were conducted in triplicate, thereby representing a minimum of 30 rats per group.

rats (Wistar) [2] = assay: Inducing intestinal ulceration (chronic), 4-day oral dosing (Control 4); assay type: in vivo; conditions: about 4 mg/kg daily oral over 4 days
Protocol: Single daily oral dosages of indomethacin at about 4 mg/kg in vehicle or in monophasic vesicles were administered over 4 days. Test animals in this example were rats (Wistar). On the fifth day the full length of the intestines were excised and slit open opposite to the attached mesenteric issue. The mucosal surface was rinsed with saline, the ulcers (including perforations) were quantitated in millimeters as described about or by determination of total surface area of lesions. This was accomplished by means of a planimeter (Zidas, Carl Zeiss, West Germany) optically linked to an SR stereo dissecting microscope (Zeiss) with a draw tube attachment. In this example results were expressed as total mm² of ulcerated surface and as percent inhibition of ulceration when treatment was provided. Average values were calculated based upon a minimum of 5 animals per group from at least duplicate experiments. […] Sham vehicle, however, were nontoxic to the animals. Clearly this method is easily adaptable by those skilled in the art to other nonsteroidal anti-inflammatory therapeutic agents and other animals.

[3] = generally shown by others, cited from earlier work; for half-lives: range for the group
rat stomach mucosa = conditions: rats dosed with the prostaglandin; cited from earlier work

Row | Compound | blood level half-lives [3] | half-lives [3] | also measured
1 | COc1ccc2c(c1)c(CC(=O)O)c(C)n2C(=O)c1ccc(Cl)cc1 [Indomethacin in PEG-400, indomethacin] | under four | – | mm ULCERATION (male Wistar rats): 43.9 mm; % SWELLING REDUCTION (female Wistar rats): 37.2%; total ulcer length, high reached in individual experiments (rats (Wistar) [1]; 10 mg indomethacin/kg body weight, P.O.): 45 mm; mm Ulceration + SEM (rats (Wistar) [1]; indomethacin 2 mg/kg): 1.1 ± 0.3 mm; mm Ulceration + SEM (rats (Wistar) [1]; indomethacin 4 mg/kg): 3.4 ± 0.8 mm; mm Ulceration + SEM (rats (Wistar) [1]; indomethacin 6 mg/kg): 9.7 ± 1.2 mm; mm Ulceration + SEM (rats (Wistar) [1]; indomethacin 8 mg/kg): 22.3 ± 3.4 mm; mm Ulceration + SEM (rats (Wistar) [1]; indomethacin 10 mg/kg): 23.3 ± 2.6 mm; mm Ulceration + SEM (rats (Wistar) [1]; indomethacin 10 mg/kg, listed as indomethacin in PEG-400): 25 mm; mortality rate (rats (Wistar) [2]): 20-30%
2 | Cc1cccc(Nc2ccccc2C(=O)O)c1C [Mefenamic acid] | about four | – | –
3 | CC(=O)Oc1ccccc1C(=O)O [acetylsalicylic, Acetylsalicylic Acid (ASA)] | under four | – | –
4 | O=C(O)Cc1ccccc1Nc1c(Cl)cccc1Cl [diclofenac] | under four | – | –
5 | O=C(O)c1cc(-c2ccc(F)cc2F)ccc1O [diflunisal] | – | over ten hours to three days | –
6 | CC(C(=O)O)c1cccc(Oc2ccccc2)c1 (stereo not shown) [fenoprofen] | under four | – | –
7 | Cc1ccc(Cl)c(Nc2ccccc2C(=O)O)c1Cl [meclofenamate] | under four | – | –
8 | CCCCC1C(=O)N(c2ccccc2)N(c2ccccc2)C1=O [phenylbutazone] | – | over ten hours to three days | –
9 | CN1C(C(=O)Nc2ccccn2)=C(O)c2ccccc2S1(=O)=O [piroxicam] | – | over ten hours to three days | –
10 | CC1=C(CC(=O)O)c2cc(F)ccc2/C1=C\c1ccc([S+](C)[O-])cc1 (stereo not shown) [sulindac] | – | over ten hours to three days | –
11 | Cc1ccc(C(=O)c2ccc(CC(=O)O)n2C)cc1 [tolmetin] | under four | – | –
12 | Prostaglandin E₂ | – | – | increase in the major gastric surface protective surfactant (rat stomach mucosa): 2-6 fold
